Results as given in patent US12527832B2, “Enriched Withania somnifera based dietary composition and a method thereof” (priority 2015, dated 2026).

Key:
[1] = rats, administered orally; cited from earlier work
Albino Wistar rats = test: Anoxia stress tolerance (AST) test; assay type: in vivo, rat; conditions: p.o. daily
Procedure: Albino Wistar rats of either sex weighing 150-220 g were selected and divided into seven groups of six each. Doses in each group were calculated thus, only 5 mg/Kg body weight withanolide were administered to each animal. The test was conducted as per the protocol disclosed in U.S. Pat. No. 9,987,323B2.
Animals were treated as shown above for the 3 weeks. At the end of 1st, 2nd and 3rd week i.e., on 7th, 14th and 21st day 1 h after the treatment stress was induced by placing each animal individually in the hermetic vessel of 1 L capacity to record anoxia tolerance time. The time duration of entry of the animal into the hermetic vessel and the appearance of the first convulsion was taken as time of anoxia.

Swiss albino mice = test: Pentobarbital induced sleep activity; assay type: in vivo; conditions: 1 mg/kg
Procedure: Swiss albino mice weighing 25-30 gm were used for the study.
Thirty minutes later, pentobarbital 40 mg/kg body weight was administered to each mouse to induce sleep. The onset time of sleep was recorded for all the animals. After induction of sleep, mice were placed in the inverted position and when sedation was over, the time point when the mice returned to their normal posture was noted. The time interval between dosing and the start of sleep was recorded as latency time.

Swiss mice = test: Swimming endurance test; assay type: in vivo; conditions: 8th day after 7 days once daily p.o.
Procedure: Extracts were given to the mice, once daily for a period of 7 days. On 8th day the mice were subjected to swimming stress by keeping them in propylene tank of dimension (37×37×30 cm), filled with water to a height of 25 cm. The […] were allowed to swim till complete exhaustion and the endpoint was taken when the animal started drowning. The mean swimming time for each group was calculated.

[2] = Bioavailability of Withaferin A and Withanoside IV in animals; assay type: in vivo; conditions: rat plasma, p.o.; standards 15 mg/kg, WG35 500 mg/kg
Procedure: Albino rats weighing 200-220 gm of both sexes were used for the study. The rats were kept individually in polypropylene cages and maintained in a well-ventilated room under normal and uniform conditions like 12 hours light and dark cycle and at 26±2° C. Water and feed were given ad-libitum. After the acclimatization period, the animals were fasted overnight before administration of test products.
Immediately after drug administration, 0.5 ml of blood was withdrawn at 0, 0.5, 1, 1.5, 2, 4, 6, 8 and 12 hours. Plasma samples were separated and Withaferin A and Withanoside IV were detected.

Wistar rats = test: Carrageenan induced paw edema model; assay type: in vivo, rat; conditions: single p.o. dose
Procedure: Anti-inflammatory activity of Withania somnifera extracts was assessed by carrageenan induced paw edema model in rats. Wistar rats were divided into seven groups (n=5). Following treatment was given to the rats as single dose; • Group 1: Control (Received only vehicle, 1% Tween 80 v/v p.o.) • Group II: Powdered Withania somnifera plant parts minimum 0.4% withanolides—Dosage 1750 mg/kg p.o. • Group III: Withania somnifera plant extract standardized minimum 2.5% withanolides (WG2.5)—Dosage 200 mg/kg p.o. • Group IV: Withania somnifera plant extract standardized minimum 5% withanolides (WG5)—Dosage 100 mg/kg p.o. • Group V: Withania somnifera plant extract standardized minimum 10% Withanolide Glycoside (WG10)—Dosage 50 mg/kg p.o. • Group VI: Sample 2 standardized with minimum 35±3% Withanolide Glycoside (WG 35)—Dosage 14 mg/kg p.o). • Group VII: Indomethacin (10 mg/kg p.o.).
After 30 minutes of extracts 0.1 mL of carrageenan (1% in normal saline) was injected into the right hind paw of each rat. The paw volume was measured plethysmographically at 0, 0.5, 1, 2, 3, 4 and 5th hour after challenge. The percentage inhibition of edema was calculated for each group with respect to the vehicle received control group of animals.

GABA receptors = test: Expression of GABA receptors in rat glioblastoma (C6) cell line; assay type: cell-based; conditions: C6 cells, positive control 1 μg/mL

CC1=C(C)C(=O)O[C@@H]([C@](C)(O)[C@H]2CC[C@H]3[C@@H]4[C@@H]5O[C@@H]5[C@@]5(O)CC=CC(=O)[C@]5(C)[C@H]4CC[C@]23C)C1 [Withanolide A]
Absolute bioavailability of withanolide A in plasma [1]: less than 5%

CN1C(=O)CN=C(c2ccccc2)c2cc(Cl)ccc21 [Diazepam]
Duration of anoxia stress tolerance (Albino Wistar rats; 1st week): 34.40 min | Duration of anoxia stress tolerance (Albino Wistar rats; 2nd week): 35.1 min | Duration of anoxia stress tolerance (Albino Wistar rats; 3rd week): 37.00 min | Duration of sleep (Swiss albino mice; pentobarbital 40 mg/kg): 99 | Onset time of sleep (latency time) (Swiss albino mice; pentobarbital 40 mg/kg): 27 min | Percentage decrease in onset time of sleep (Swiss albino mice; vs control): 47% | Percentage increase in duration of sleep (Swiss albino mice; vs control): 74% | Swimming time (Swiss mice): 58.67 min

CC1=C(CO)C(=O)O[C@@H]([C@@H](C)[C@H]2CC[C@H]3[C@@H]4CC=C5C[C@@H](O[C@@H]6O[C@H](CO[C@@H]7O[C@H](CO)[C@@H](O)[C@H](O)[C@H]7O)[C@@H](O)[C@H](O)[C@H]6O)C[C@H](O)[C@]5(C)[C@H]4CC[C@]23C)C1 [Withanoside IV]
Withaferin A AUC (0-12 h) [2]: 18 ng·h/mL | Withaferin A Cmax [2]: 13.5 ng/mL | Withanoside IV AUC (0-12 h) [2]: 14 ng·h/mL | Withanoside IV Cmax [2]: 10.2 ng/mL

CC1=C(CO)C(=O)O[C@@H]([C@@H](C)[C@H]2CC[C@H]3[C@@H]4C[C@H]5O[C@]56[C@@H](O)C=CC(=O)[C@]6(C)[C@H]4CC[C@]23C)C1 [Withaferin A]
Withaferin A AUC (0-12 h) [2]: 30.2 ng·h/mL | Withaferin A Cmax [2]: 28 ng/mL

COc1ccc2c(c1)c(CC(=O)O)c(C)n2C(=O)c1ccc(Cl)cc1 [Indomethacin]
Percentage inhibition of paw oedema (Wistar rats; 0.5 hr): 28% | Percentage inhibition of paw oedema (Wistar rats; 1 hr): 65% | Percentage inhibition of paw oedema (Wistar rats; 2 hr): 80% | Percentage inhibition of paw oedema (Wistar rats; 3 hr): 86%

NCCCC(=O)O [GABA, Gamma aminobutyric acid]
Gene expression of GABA receptors, fold increase (cell control = 1.00) (GABA receptors): 1.00
